The values below come from patent US9637469B2, “Pyridine derivative” (Teijin Pharma Limited, priority 2012, dated 2017).

For the first assay, the target named is T1, human URAT1 (Homo sapiens, UniProt Q96S37).
T1 construct: Full-length cDNA of human URAT1 (hURAT1)
T1 sequence (Q96S37 1-553): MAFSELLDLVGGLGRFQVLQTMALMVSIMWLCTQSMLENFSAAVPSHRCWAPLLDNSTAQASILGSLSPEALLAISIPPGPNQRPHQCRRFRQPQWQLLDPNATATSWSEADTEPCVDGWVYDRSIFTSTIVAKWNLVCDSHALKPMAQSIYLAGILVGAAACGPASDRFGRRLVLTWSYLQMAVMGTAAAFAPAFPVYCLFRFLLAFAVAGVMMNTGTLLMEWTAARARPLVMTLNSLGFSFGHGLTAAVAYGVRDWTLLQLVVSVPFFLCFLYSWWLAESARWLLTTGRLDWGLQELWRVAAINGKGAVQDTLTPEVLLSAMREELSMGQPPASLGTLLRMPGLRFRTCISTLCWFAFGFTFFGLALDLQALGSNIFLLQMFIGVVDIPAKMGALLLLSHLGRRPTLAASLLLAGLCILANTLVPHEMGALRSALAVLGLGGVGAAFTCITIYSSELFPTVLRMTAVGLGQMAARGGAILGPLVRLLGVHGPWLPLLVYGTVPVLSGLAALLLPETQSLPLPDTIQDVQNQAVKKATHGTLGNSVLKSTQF
In words: Test for inhibition of uric acid transport using human URAT1-expressing cells.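 Further: three stars up to 0.2 µM two stars 0.2-2 µM one star 2-20 µM.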 Format: cell-based. Conditions: HEK 293 cells expressing human URAT1; 14C-labeled uric acid 25 μM; uptake 37° C. for 5 min. The method, boiled down:
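IC50 values reflect inhibition of ¹⁴C-uric acid uptake (25 μM final, 5 min, 37 °C) by compound. Cells were HEK293 stably expressing full-length human URAT1, preincubated in Na-gluconate-substituted HBSS. Radioactivity in lysates was expressed relative to DMSO control as 100%.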
Take `Cc1nc(-c2cncc(F)c2)n(Cc2cccc3ccsc23)c1C(=O)O` [Compound A234, 1-(benzo[b]thiophen-7-ylmethyl)-2-(5-fluoropyridin-3-yl)-4-methyl-1H-imidazole-5-carboxylic acid]: the “Inhibitory Activity (IC50 of uric acid transport inhibition)” value (from here on “Inhibitory Activity”) is given as “* *”.
Take `Cc1nc(-c2cccnc2)n(Cc2cc(Cl)ccc2C(F)(F)F)c1C(=O)O` [Compound A44, 1-(5-chloro-2-(trifluoromethyl)benzyl)-4-methyl-2-(pyridin-3-yl)-1H-imidazole-5-carboxylic acid]: the “Inhibitory Activity” value is reported as “* *”.
As for `CS(=O)(=O)NC(=O)c1ccc(-c2cccnc2)n1Cc1cc(Cl)ccc1Cl` [Compound B28, 1-(2,5-dichlorobenzyl)-N-(methylsulfonyl)-2-(pyridin-3-yl)-1H-pyrrole-5-carboxamide], the “Inhibitory Activity” value is listed as “* * *”.
Same read-out and setting: the result for `CC(C)c1nc(-c2cccnc2)n(Cc2csc3cccc(C(F)(F)F)c23)c1C(=O)O` [Compound A39, 4-isopropyl-2-(pyridin-3-yl)-1-((4-(trifluoromethyl)benzo[b]thiophen-3-yl)methyl)-1H-imidazole-5-carboxylic acid] reads “* * *”; that for `Cc1ccc2ccccc2c1Cn1c(C(=O)O)ccc1-c1cccnc1` [Compound B4, 1-((2-methylnaphthalen-1-yl)methyl)-2-(pyridin-3-yl)-1H-pyrrole-5-carboxylic acid], “* *”; that for `Clc1ccc(Cl)c(Cn2c(-c3nnn[nH]3)cnc2-c2cccnc2)c1` [Compound A110, 3-(1-(2,5-dichlorobenzyl)-5-(1H-tetrazol-5-yl)-1H-imidazol-2-yl)pyridine], “* *”.
Still for that read-out and setting: the result for `Cc1nc(-c2cncc(C(F)F)c2)n(Cc2cc(Cl)ccc2Cl)c1C(=O)O` [Compound A208, 1-(2,5-dichlorobenzyl)-2-(5-(difluoromethyl)pyridin-3-yl)-4-methyl-1H-imidazole-5-carboxylic acid] reads “* * *”.
Same read-out and setting: in the case of `O=C(O)c1c(C(F)(F)F)nc(-c2cccnc2)n1Cc1csc2cccc(Br)c12` [Compound A31, 1-((4-bromobenzo[b]thiophen-3-yl)methyl)-2-(pyridin-3-yl)-4-(trifluoromethyl)-1H-imidazole-5-carboxylic acid] it was “* *”.
In the case of `O=C(O)c1c(Cl)nc(-c2cccnc2)n1Cc1cccc2ccccc12` [Compound A9, 4-chloro-1-(napthalen-1-ylmethyl)-2-(pyridin-3-yl)-1H-imidazole-5-carboxylic acid], the “Inhibitory Activity” value is “* *”.
Same read-out and setting: the result for `CC(=O)c1nc(-c2cncc(Cl)c2)n(Cc2cc(Cl)ccc2Cl)c1C(=O)O` [Compound A218, 4-acetyl-2-(5-chloropyridin-3-yl)-1-(2,5-dichlorobenzyl)-1H-imidazole-5-carboxylic acid] reads “* * *”; that for `CCC(O)(CC)c1nc(-c2cncc(Cl)c2)n(Cc2cc(Cl)ccc2Cl)c1C(=O)O` [Compound A216, 2-(5-chloropyridin-3-yl)-1-(2,5-dichlorobenzyl)-4-(3-hydroxypentane-3-yl)-1H-imidazole-5-carboxylic acid], “* * *”.
On the same count and under the same terms, in the case of `O=C(O)c1ccc(-c2cncc(Cl)c2)n1Cc1csc2cccc(Cl)c12` [Compound B18, 1-((4-chlorobenzo[b]thiophen-3-yl)methyl)-2-(5-chloropyridin-3-yl)-1H-pyrrole-5-carboxylic acid] it was “* * *”.
Same read-out and setting: in the case of `CS(=O)(=O)NC(=O)c1ccc(-c2cncc(F)c2)n1Cc1cc(Cl)ccc1Cl` [Compound B26, 1-(2,5-dichlorobenzyl)-2-(5-fluoropyridin-3-yl)-N-(methylsulfonyl)-1H-pyrrole-5-carboxamide] it was “* * *”.
Consider `Cc1cncc(-c2ncc(C(=O)O)n2Cc2cc(Cl)ccc2Cl)c1` [Compound A206, 1-(2,5-dichlorobenzyl)-2-(5-methylpyridin-3-yl)-1H-imidazole-5-carboxylic acid], for which the “Inhibitory Activity” value was “* * *”.
The same measure, in the same setting: the result for `Cc1nc(Oc2ccccn2)n(Cc2cc(Cl)ccc2Cl)c1C(=O)O` [Compound A247, 1-(2,5-dichlorobenzyl)-4-methyl-2-(pyridin-2-yloxy)-1H-imidazole-5-carboxylic acid] reads “* *”; that for `O=C(O)/C=C/c1ccc(-c2cccnc2)n1Cc1cccc2ccccc12` [Compound B33, (E)-3-(1-(naphthalen-1-ylmethyl)-2-(pyridin-3-yl)-1H-pyrrole-5-yl)acrylic acid], “* * *”; that for `CSc1nc(-c2cccnc2)n(Cc2cc(Cl)ccc2Cl)c1C(=O)O` [Compound A104, 1-(2,5-dichlorobenzyl)-4-(methylthio)-2-(pyridin-3-yl)-1H-imidazole-5-carboxylic acid], “* * *”.
Same read-out and setting: in the case of `Cc1nc(-c2cncc(Cl)c2)n(C(C)c2cc(Cl)ccc2Cl)c1C(=O)O` (stereo not shown) [Compound A223, 2-(5-chloropyridin-3-yl)-1-(1-(2,5-dichlorophenyl)ethyl)-4-methyl-1H-imidazole-5-carboxylic acid] it was “* *”; in that of `O=C(O)c1c(C2CC2)nc(-c2cncc(Cl)c2)n1Cc1cccc2ccsc12` [Compound A236, 1-(benzo[b]thiophen-7-ylmethyl)-2-(5-chloropyridin-3-yl)-4-cyclopropyl-1H-imidazole-5-carboxylic acid], “* * *”.
The same measure, in the same setting: the result for `O=C(O)c1c(CN2CCCCC2)nc(-c2cncc(Cl)c2)n1Cc1cc(Cl)ccc1Cl` [Compound A195, 2-(5-chloropyridin-3-yl)-1-(2,5-dichlorobenzyl)-4-(piperidin-1-ylmethyl)-1H-imidazole-5-carboxylic acid] reads “* * *”; that for `Cc1nc(-c2cnc3ccccc3c2)n(Cc2cc(Cl)ccc2Cl)c1C(=O)O` [Compound A67, 1-(2,5-dichlorobenzyl)-4-methyl-2-(quinolin-3-yl)-1H-imidazole-5-carboxylic acid], “* *”.
As for `Cc1nc(-c2cncc(Cl)c2)n(Cc2csc3ccccc23)c1C(=O)O` [Compound A132, 1-(benzo[b]thiophen-3-ylmethyl)-2-(5-chloropyridin-3-yl)-4-methyl-1H-imidazole-5-carboxylic acid], the “Inhibitory Activity” value is reported as “* *”.
Same read-out and setting: in the case of `COc1ncccc1-c1nc(C)c(C(=O)O)n1Cc1cc(Cl)ccc1Cl` [Compound A162, 1-(2,5-dichlorobenzyl)-2-(2-methoxypyridin-3-yl)-4-methyl-1H-imidazole-5-carboxylic acid] it was “* *”; in that of `CC(C)(O)c1nc(-c2cccnc2)n(Cc2cc(Cl)ccc2Cl)c1C(=O)O` [Compound A108, 1-(2,5-dichlorobenzyl)-4-(2-hydroxypropan-2-yl)-2-(pyridin-3-yl)-1H-imidazole-5-carboxylic acid], “* * *”; in that of `Cc1nc(-c2cncc(OCc3ccccc3)c2)n(Cc2cc(Cl)ccc2Cl)c1C(=O)O` [Compound A190, 2-(5-(benzyloxy)pyridin-3-yl)-1-(2,5-dichlorobenzyl)-4-methyl-1H-imidazole-5-carboxylic acid], “* *”.
Same read-out and setting: the result for `Cc1cncc(-c2ccc(C(=O)O)n2Cc2cccc3ccsc23)c1` [Compound B21, 1-(benzo[b]thiophen-7-ylmethyl)-2-(5-methylpyridin-3-yl)-1H-pyrrole-5-carboxylic acid] reads “* * *”.

The same assay, now with this note: HEK 293 cells expressing human URAT1; 14C-labeled uric acid 25 μM; uptake 37° C. for 5 min; read-out: Inhibitory Activity (IC50 of uric acid transport inhibition).
For the compound `Cc1nc(-c2cccnc2)n(Cc2cccc(C(F)(F)F)c2)c1C(=O)O` [Compound A61], the IC50 lay in the range of 2 to 20 µM.
On the same count and under the same terms, in the case of `O=C(O)/C=C/c1cnc(-c2cccnc2)n1Cc1cccc2ccccc12` [Compound A259] it was 2 to 20 µM; in that of `Cc1nc(-c2cccnc2)n(Cc2ccccc2Cl)c1C(=O)O` [Compound A51], 2 to 20 µM.
Same read-out and setting: the result for `Cc1nc(-c2cccnc2)n(Cc2cccc(C#N)c2)c1C(=O)O` [Compound A65] reads 2 to 20 µM.
Still for that read-out and setting: in the case of `Cc1nc(-c2ccc(N(C)C)nc2)n(Cc2cc(Cl)ccc2Cl)c1C(=O)O` [Compound A163] it was 2 to 20 µM; in that of `Cc1nc(-c2cccnc2)n(Cc2cccc(Cl)c2)c1C(=O)O` [Compound A52], 2 to 20 µM; in that of `NCc1nc(-c2cncc(Cl)c2)n(Cc2cc(Cl)ccc2Cl)c1C(=O)O` [Compound A201], 2 to 20 µM.
For the compound `C[S+]([O-])c1nc(-c2cccnc2)n(Cc2cc(Cl)ccc2Cl)c1C(=O)O` (stereo not shown) [Compound A106], the IC50 lay within 2 to 20 µM.
